Experimental data as given in PMC12649549, “Sequence Permutation Generated Lysine and Tryptophan-Rich Antimicrobial Peptides with Enhanced Therapeutic Index” (Antibiotics, 2025).
Like-named read-outs stand apart in the source and are kept apart here.

What was measured:
Gram-positive bacteria = test: Geometric mean MIC and therapeutic index, Gram-positive bacteria; assay type: cell-based; details: for Therapeutic Index (TI) G+: HC10/GM
Experimental: In this study, we aimed to investigate the potential of W5K series peptides for therapeutic use. To evaluate their efficacy for antibacterial therapy, we used the Therapeutic Index (TI) as a measure of their cell selectivity. The TI was calculated as the ratio of the concentration causing 10% hemolysis of human red blood cells (HC10) to the geometric mean minimum inhibitory concentration (GM) of the peptides against both Gram-negative and Gram-positive bacteria. This parameter was used to quantitatively assess the balance between antibacterial potency and cytotoxicity among the W5K derivatives.
(§1) The antibacterial activities of the peptides in Müller-Hinton (MH) broth and modified LYM broth were determined using the standard broth microdilution method as per Clinical and Laboratory Standards Institute (CLSI) guidelines. The LYM broth was prepared with specific components and adjusted to different conditions, including varying concentrations of NaCl and MgCl2, and different pH levels. To prepare the LYM broth, 5.4 mM KCl, 5.6 mM Na2HPO4, 0.5 mM MgSO4, and 1.0 mM sodium citrate were added. Additionally, 0.4 mg of ZnCl2, 2.0 mg of FeCl3·6H2O, 0.1 mg of CuSO4·5H2O, 0.1 mg of MnSO4·H2O, 0.1 mg of Na2B4O7∙10H2O, 700 mg of amino acid mixtures without tryptophan (Takara Bio Inc., San Jose, CA, USA), and 20 mg of L-tryptophan were added per liter of medium. The pH was adjusted to 7.4, and a vitamin mixture (100X, Sigma) and glucose concentration of 2% were added. For different conditions of LYM broth, NaCl concentrations of 300, 200, 150, and 50 mM, MgCl2 concentrations of 2.5, 1.5, and 0.5 mM, and pH levels of 6.5, 5.5, and 4.5 were adjusted. Bacterial strains were incubated in MH broth overnight, regrown, and diluted to a final concentration of 5 × 10^5 CFU/mL. Peptides were added to each well at final concentrations of 50, 25, 12.5, 6.25, 3.13, 1.56, and 0.78 µg/mL, and 99 µL of diluted microbes was loaded into each well of a polypropylene 96-well plate. […] The Morpheus HeatMap software (https://software.broadinstitute.org/morpheus/) was used to display MIC values on a color scale. All experiments were independently repeated three times.

S. aureus ATCC 33592 = tested on: S. aureus ATCC 33592
Experimental: (§2) The antibacterial and salt-resistant activity of the peptides was tested using Escherichia coli (ATCC 25922), Pseudomonas aeruginosa Migula (ATCC 27853), Acinetobacter sp. (BCRC number 14B0091, BCRC number 14B0097, and BCRC number 14B0100), and Staphylococcus aureus sp. strains (ATCC 25923, ATCC 33591, ATCC 33592, ATCC 33593, and ATCC 6538). All bacteria were obtained from the Food Industry Research and Development Institute (Hsinchu, Taiwan) and cultured in sterilized Müller-Hinton (MH) broth at 37 °C and 200 rpm for 8 h. The inoculum concentrations were determined by measuring the optical density at 600 nm (OD 600 = 1, approximately 10^8 CFU/mL) using an Ultrospec 2100 pro UV-Visible spectrophotometer (Biochrom Ltd., Cambridge, UK) after 8 h of culture.
as §1, with “For different conditions of LYM broth, NaCl concentrations of 300, 200, 150, and 50 mM, MgCl2 concentrations of 2.5, 1.5, and 0.5 mM, and pH levels of 6.5, 5.5, and 4.5 were adjusted.” left out

S. aureus ATCC 6538 = tested on: S. aureus ATCC 6538
Experimental: as §2, §1

S. aureus ATCC 25923 = tested on: S. aureus ATCC 25923
Experimental: as §2, §1

[1] = tested on: A. baumannii 14B0097 (Acinetobacter sp., BCRC number 14B0097)
Experimental: as §2, §1

[2] = LYM broth, 0 mM NaCl, 16 h, 37 °C
[3] = LYM broth, 50 mM NaCl, 16 h, 37 °C
[4] = LYM broth, 100 mM NaCl, 16 h, 37 °C
[5] = LYM broth, 200 mM (NaCl), 16 h, 37 °C
[6] = LYM broth, 300 mM (NaCl), 16 h, 37 °C
[7] = MH broth, 5 × 10^5 CFU/mL, 16 h, 37 °C, repeated three times

Ac-AKKKKWRKWLKWL-NH2 [Peptide W5K10]
GM G+ (geometric mean of the MIC values) (Gram-positive bacteria; Gram-positive bacteria, MH broth, MIC >50 µg/mL counted as 100 µg/mL): 9.5 µg/mL | Therapeutic Index (TI) G+ (Gram-positive bacteria; Gram-positive bacteria): 11.5 | MIC (S. aureus ATCC 33592; [2]): 3.13 µg/mL | MIC (S. aureus ATCC 33592; LYM broth, 0.5 mM MgCl2): 3.13 µg/mL | MIC (S. aureus ATCC 33592; LYM broth, 1.5 mM MgCl2): 3.13 µg/mL | MIC (S. aureus ATCC 33592; LYM broth, 2.5 mM MgCl2): 3.13 µg/mL | MIC (S. aureus ATCC 33592; [3]): 6.25 µg/mL | MIC (S. aureus ATCC 33592; [4]): 6.25 µg/mL | MIC (S. aureus ATCC 33592; [5]): 12.5 µg/mL | MIC (S. aureus ATCC 33592; [6]): 25 µg/mL | MIC (S. aureus ATCC 33592; LYM broth, pH 4.5): 3.13 µg/mL | MIC (S. aureus ATCC 33592; LYM broth, pH 5.5): 3.13 µg/mL | MIC (S. aureus ATCC 33592; LYM broth, pH 6.5): 3.13 µg/mL | MIC (S. aureus ATCC 33592; [7]): 12.5 µg/mL | MIC (S. aureus ATCC 6538; [2]): 1.56 µg/mL | MIC (S. aureus ATCC 6538; LYM broth, 0.5 mM MgCl2): 1.56 µg/mL | MIC (S. aureus ATCC 6538; LYM broth, 1.5 mM MgCl2): 1.56 µg/mL | MIC (S. aureus ATCC 6538; LYM broth, 2.5 mM MgCl2): 1.56 µg/mL | MIC (S. aureus ATCC 6538; [3]): 1.56 µg/mL | MIC (S. aureus ATCC 6538; [4]): 3.13 µg/mL | MIC (S. aureus ATCC 6538; [5]): 6.25 µg/mL | MIC (S. aureus ATCC 6538; [6]): 12.5 µg/mL | MIC (S. aureus ATCC 6538; LYM broth, pH 4.5): 6.25 µg/mL | MIC (S. aureus ATCC 6538; LYM broth, pH 5.5): 3.13 µg/mL | MIC (S. aureus ATCC 6538; LYM broth, pH 6.5): 1.56 µg/mL | MIC (S. aureus ATCC 6538; [7]): 6.25 µg/mL | MIC (S. aureus ATCC 25923; [2]): 3.13 µg/mL | MIC (S. aureus ATCC 25923; LYM broth, 0.5 mM MgCl2): 1.56 µg/mL | MIC (S. aureus ATCC 25923; LYM broth, 1.5 mM MgCl2): 3.13 µg/mL | MIC (S. aureus ATCC 25923; LYM broth, 2.5 mM MgCl2): 3.13 µg/mL | MIC (S. aureus ATCC 25923; [3]): 3.13 µg/mL | MIC (S. aureus ATCC 25923; [4]): 6.25 µg/mL | MIC (S. aureus ATCC 25923; [5]): 12.5 µg/mL | MIC (S. aureus ATCC 25923; [6]): 25 µg/mL | MIC (S. aureus ATCC 25923; LYM broth, pH 4.5): 3.13 µg/mL | MIC (S. aureus ATCC 25923; LYM broth, pH 5.5): 3.13 µg/mL | MIC (S. aureus ATCC 25923; LYM broth, pH 6.5): 3.13 µg/mL | MIC (S. aureus ATCC 25923; [7]): 6.25 µg/mL | MIC [1, 2]: 1.56 µg/mL | MIC ([1]; LYM broth, 0.5 mM MgCl2): 1.56 µg/mL | MIC ([1]; LYM broth, 1.5 mM MgCl2): 1.56 µg/mL | MIC ([1]; LYM broth, 2.5 mM MgCl2): 3.13 µg/mL | MIC [1, 3]: 1.56 µg/mL | MIC [1, 4]: 1.56 µg/mL | MIC [1, 5]: 1.56 µg/mL | MIC [1, 6]: 6.25 µg/mL | MIC ([1]; LYM broth, pH 4.5): 3.13 µg/mL | MIC ([1]; LYM broth, pH 5.5): 1.56 µg/mL | MIC ([1]; LYM broth, pH 6.5): 1.56 µg/mL | MIC [1, 7]: 1.56 µg/mL

Ac-KKKKWRKWLKWLA-NH2 [Peptide W5K11]
GM G+ (geometric mean of the MIC values) (Gram-positive bacteria): 5.4 µg/mL | Therapeutic Index (TI) G+ (Gram-positive bacteria; Gram-positive bacteria): 13.0 | MIC (S. aureus ATCC 33592; [2]): 3.13 µg/mL | MIC (S. aureus ATCC 33592; LYM broth, 0.5 mM MgCl2): 3.13 µg/mL | MIC (S. aureus ATCC 33592; LYM broth, 1.5 mM MgCl2): 3.13 µg/mL | MIC (S. aureus ATCC 33592; LYM broth, 2.5 mM MgCl2): 3.13 µg/mL | MIC (S. aureus ATCC 33592; [3]): 3.13 µg/mL | MIC (S. aureus ATCC 33592; [4]): 3.13 µg/mL | MIC (S. aureus ATCC 33592; [5]): 3.13 µg/mL | MIC (S. aureus ATCC 33592; [6]): 6.25 µg/mL | MIC (S. aureus ATCC 33592; LYM broth, pH 4.5): 3.13 µg/mL | MIC (S. aureus ATCC 33592; LYM broth, pH 5.5): 3.13 µg/mL | MIC (S. aureus ATCC 33592; LYM broth, pH 6.5): 1.56 µg/mL | MIC (S. aureus ATCC 33592; [7]): 6.25 µg/mL | MIC (S. aureus ATCC 6538; [2]): 1.56 µg/mL | MIC (S. aureus ATCC 6538; LYM broth, 0.5 mM MgCl2): 1.56 µg/mL | MIC (S. aureus ATCC 6538; LYM broth, 1.5 mM MgCl2): 1.56 µg/mL | MIC (S. aureus ATCC 6538; LYM broth, 2.5 mM MgCl2): 1.56 µg/mL | MIC (S. aureus ATCC 6538; [3]): 1.56 µg/mL | MIC (S. aureus ATCC 6538; [4]): 3.13 µg/mL | MIC (S. aureus ATCC 6538; [5]): 3.13 µg/mL | MIC (S. aureus ATCC 6538; [6]): 6.25 µg/mL | MIC (S. aureus ATCC 6538; LYM broth, pH 4.5): 3.13 µg/mL | MIC (S. aureus ATCC 6538; LYM broth, pH 5.5): 1.56 µg/mL | MIC (S. aureus ATCC 6538; LYM broth, pH 6.5): 1.56 µg/mL | MIC (S. aureus ATCC 6538; [7]): 3.13 µg/mL | MIC (S. aureus ATCC 25923; [2]): 1.56 µg/mL | MIC (S. aureus ATCC 25923; LYM broth, 0.5 mM MgCl2): 1.56 µg/mL | MIC (S. aureus ATCC 25923; LYM broth, 1.5 mM MgCl2): 1.56 µg/mL | MIC (S. aureus ATCC 25923; LYM broth, 2.5 mM MgCl2): 1.56 µg/mL | MIC (S. aureus ATCC 25923; [3]): 1.56 µg/mL | MIC (S. aureus ATCC 25923; [4]): 3.13 µg/mL | MIC (S. aureus ATCC 25923; [5]): 3.13 µg/mL | MIC (S. aureus ATCC 25923; [6]): 6.25 µg/mL | MIC (S. aureus ATCC 25923; LYM broth, pH 4.5): 3.13 µg/mL | MIC (S. aureus ATCC 25923; LYM broth, pH 5.5): 1.56 µg/mL | MIC (S. aureus ATCC 25923; LYM broth, pH 6.5): 1.56 µg/mL | MIC (S. aureus ATCC 25923; [7]): 3.13 µg/mL | MIC [1, 2]: 1.56 µg/mL | MIC ([1]; LYM broth, 0.5 mM MgCl2): 1.56 µg/mL | MIC ([1]; LYM broth, 1.5 mM MgCl2): 1.56 µg/mL | MIC ([1]; LYM broth, 2.5 mM MgCl2): 1.56 µg/mL | MIC [1, 3]: 1.56 µg/mL | MIC [1, 4]: 1.56 µg/mL | MIC [1, 5]: 1.56 µg/mL | MIC [1, 6]: 1.56 µg/mL | MIC ([1]; LYM broth, pH 4.5): 1.56 µg/mL | MIC ([1]; LYM broth, pH 5.5): 1.56 µg/mL | MIC ([1]; LYM broth, pH 6.5): 1.56 µg/mL | MIC [1, 7]: 1.56 µg/mL
